From patent US8846729B2, “2-thio-1,3,4-oxadiazoles azetidine derivatives as sphingosine-1 phosphate receptors modulators” (Allergan, Inc., priority 2012, dated 2014) come the findings set out here.

In general, EC50 refers to the concentration giving half of the maximal effect. Read a high EC50 as a less potent agent.

T1 sequence (P21453 whole entry): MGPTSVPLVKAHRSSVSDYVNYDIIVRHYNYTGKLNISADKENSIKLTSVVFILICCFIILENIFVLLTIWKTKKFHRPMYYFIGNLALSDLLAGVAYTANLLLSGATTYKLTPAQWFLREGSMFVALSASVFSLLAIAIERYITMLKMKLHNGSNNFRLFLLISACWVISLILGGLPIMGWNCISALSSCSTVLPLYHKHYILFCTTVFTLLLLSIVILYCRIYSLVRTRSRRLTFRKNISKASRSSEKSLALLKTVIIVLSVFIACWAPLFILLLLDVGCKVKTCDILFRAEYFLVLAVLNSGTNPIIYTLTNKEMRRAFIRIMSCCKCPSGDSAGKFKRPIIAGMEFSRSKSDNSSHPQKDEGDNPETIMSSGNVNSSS

The assay concerns the target T1, human S1P1 receptor (Homo sapiens, UniProt P21453).
T1 construct: expressed in transfected cells; membranes used
Nature of the assay: GTP γ35S binding assay for S1P1 activity. The format is biochemical. As to conditions: membranes of cells stably expressing S1P1 receptor, agonist potency. The method, then:
Compounds were synthesized and tested for S1P1 activity using the GTP γ^355 binding assay. These compounds may be assessed for their ability to activate or block activation of the human S1P1 receptor in cells stably expressing the S1P1 receptor.
[…] binding was measured in the medium containing (mM) HEPES 25, pH 7.4, MgCl2 10, NaCl 100, dithitothreitol 0.5, digitonin 0.003%, 0.2 nM GTP γ^35S, and 5 μg membrane protein in a volume of 150 μl. Test compounds were included in the concentration range from 0.08 to 5,000 nM unless indicated otherwise. Membranes were incubated with 100 μM 5′-adenylylimmidodiphosphate for 30 min, and subsequently with 10 μM GDP for 10 min on ice. Drug solutions and membrane were mixed, and then reactions were initiated by adding GTP γ^355 and continued for 30 min at 25° C. Reaction mixtures were filtered over Whatman GF/B filters under vacuum, and washed three times with 3 mL of ice-cold buffer (HEPES 25, pH7.4, MgCl2 10 and NaCl 100). Filters were dried and mixed with scintillant, and counted for ^35S activity using a β-counter. Agonist-induced GTP γ^355 binding was obtained by subtracting that in the absence of agonist. Binding data were analyzed using a non-linear regression method. In case of antagonist assay, the reaction mixture contained 10 nM […] in the presence of test antagonist at concentrations ranging from 0.08 to 5000 nM.
A general note: GTPγS is a poorly hydrolysed GTP analogue; its binding reports G protein activation.
Molecule `O=C(O)C1CN(Cc2ccc(-c3nnc(SCc4cccc(Cl)c4F)o3)cc2)C1` [Compound 1, 1-(4-{5-[(3-Chloro-2-fluorobenzyl)thio]-1,3,4-oxadiazol-2-yl}benzyl)azetidine-3-carboxylic acid] returned an EC50 of 18.6 nM.

For the molecule `Cc1cc(CN2CC(C(=O)O)C2)ccc1-c1nnc(SC(C)c2cccc([N+](=O)[O-])c2)o1` (stereo not drawn) [Compound 2, 1-[3-Methyl-4-(5-{[1-(3-nitrophenyl)ethyl]thio}-1,3,4-oxadiazol-2-yl)benzyl]azetidine-3-carboxylic acid], the EC50 was 16.7 nM.

As to `CCC(Sc1nnc(-c2ccc(CN3CC(C(=O)O)C3)cc2C)o1)c1cccc([N+](=O)[O-])c1` (stereo not drawn) [Compound 3, 1-[3-Methyl-4-(5-{[1-(3-nitrophenyl)propyl]thio}-1,3,4-oxadiazol-2-yl)benzyl]azetidine-3-carboxylic acid], it took 60.9 nM to reach a half-maximal effect (EC50).
